Measured values as given in patent publication US11999745B2, “Pharmaceutical compounds” (Heptares Therapeutics Limited, priority 2020, dated 2024).
Read-outs that look alike come from different tables or passages of the source.

Key:
[1] = tested on: MDR1 (P-glycoprotein); experiment: MDCK permeability/efflux; assay type: in vitro ADME; settings: dog
Procedure: MDR1-MDCK cells (Solvo Biotechnology) were seeded onto 24-well Transwell plates at 2.35×10^5 cells per well and used in confluent monolayers after a 3 day culture at 37° C. under 5% CO2. For cell types, test and control compounds (propranolol, vinblastine) were added (1 μM, 0.1% DMSO final, n=2) to donor compartments of the Transwell plate assembly in assay buffer (Hanks balanced salt solution supplemented with 25 mM HEPES, adjusted to pH 7.4) for both apical to basolateral (A>B) and basolateral to apical (B>A) measurements. Incubations were performed at 37° C., with samples removed from both donor and acceptor chambers at T=0 and 1 hour and compound analysed by mass spectrometry (LC-MS/MS) including an analytical internal standard.
Apparent permeability (Papp) values were determined from the relationship: Papp=(CompoundAcceptor T=end/(CompoundDonor×VDonorγIncubation Time)×VDonor Area×60×10^−6 cm/s
Where V is the volume of each Transwell compartment (apical 125 μL, basolateral 600 μL), and concentrations are the relative MS responses for compound (normalized to internal standard) in the donor chamber before incubation and acceptor chamber at the end of the incubation. Area=area of cells exposed for drug transfer (0.33 cm^2). Efflux ratio (Papp B>A /Papp A>B) was calculated from the mean Papp values in each direction. […] Lucifer Yellow (LY) was added to the apical buffer in all wells to assess viability of the cell layer. […] Compound recovery from the wells was determined from MS responses (normalized to internal standard) in donor and acceptor chambers at the end of incubation compared to response in the donor chamber pre-incubation.

[2] = molecular target: T1, human muscarinic M1 receptor (Homo sapiens, UniProt P11229); experiment: Alphascreen Surefire phospho-ERK1/2 functional assay, M1; assay type: cell-based
T1 construct: expressed in transfected cells
T1 sequence (P11229 1-460): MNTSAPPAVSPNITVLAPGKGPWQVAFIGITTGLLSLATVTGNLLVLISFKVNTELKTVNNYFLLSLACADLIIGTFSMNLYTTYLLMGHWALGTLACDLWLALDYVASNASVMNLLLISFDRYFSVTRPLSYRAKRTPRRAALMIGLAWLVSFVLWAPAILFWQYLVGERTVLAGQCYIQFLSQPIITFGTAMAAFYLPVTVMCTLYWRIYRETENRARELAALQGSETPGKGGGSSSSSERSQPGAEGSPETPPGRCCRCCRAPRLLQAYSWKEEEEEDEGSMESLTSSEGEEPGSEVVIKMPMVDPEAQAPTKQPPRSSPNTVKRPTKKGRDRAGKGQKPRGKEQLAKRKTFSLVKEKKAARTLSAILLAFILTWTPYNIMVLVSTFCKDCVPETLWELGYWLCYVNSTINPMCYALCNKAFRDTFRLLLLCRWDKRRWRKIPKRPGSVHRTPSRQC
Procedure: ERK1/2 phosphorylation is a downstream consequence of both Gq/11 and Gi/o protein coupled receptor activation, making it highly suitable for the assessment of M1, M3 (Gq/11 coupled) and M2, M4 receptors (Gi/o coupled), rather than using different assay formats for different receptor subtypes. CHO cells stably expressing the human muscarinic M1, M2, M3 or M4 receptor were plated (25K/well) onto 96-well tissue culture plates in MEM-alpha+10% dialysed FBS. Once adhered, cells were serum-starved overnight. Agonist stimulation was performed by the addition of 5 μL agonist to the cells for 5 min (37° C.). Media was removed and 50 μL of lysis buffer added.

[3] = Hepatocyte stability, CLint (in vitro hepatocytes), rat; assay type: in vitro ADME; settings: pooled cryopreserved hepatocytes, 1.0 million cells/mL, 37° C., read-out: in vitro intrinsic clearance (CLint)
Procedure: (§1) Hepatocyte stability assays were performed using pooled cryopreserved hepatocytes (Bioreclamation). Test compounds prepared in DMSO, were incubated at an initial concentration of 1 μM (0.25% DMSO final, n=2) with hepatocytes at cell densities of 1.0 million cells/mL at 37° C. Aliquots were removed at 0.5, 5, 10, 15, 30, 60 and 120 minutes for termination of reactions and compound extraction with acetonitrile containing an analytical internal standard (0.5 μM carbamazepine). Samples were centrifuged and the supernatant fractions analysed for parent compound by mass spectrometry (LC-MS/MS). The amount of compound remaining (expressed as %) was determined from the MS response in each sample relative to that in the T=0 samples (normalised for internal standard). Ln plots of the % remaining were used to determine the half-life for compound disappearance using the relationship: Half-Life(min)=−0.693/λ (where λ is the slope of the Ln % remaining vs time curve).

[4] = Hepatocyte stability, CLint (in vitro hepatocytes), dog; assay type: in vitro ADME; settings: pooled cryopreserved hepatocytes, 1.0 million cells/mL, 37° C., read-out: in vitro intrinsic clearance (CLint)
Procedure: as §1

[5] = Hepatocyte stability, CLint (in vitro hepatocytes), monkey; assay type: in vitro ADME; settings: pooled cryopreserved hepatocytes, 1.0 million cells/mL, 37° C., read-out: in vitro intrinsic clearance (CLint)
Procedure: as §1

[6] = Unbound brain/unbound plasma concentration ratio (Kp,uu); assay type: in vivo; settings: brain and plasma (unbound); measured unbound plasma:brain distribution; parameter used in prediction; read-out: Kpuu (unbound brain/unbound plasma concentration)
Excerpt: Kp,uu—ratio of unbound brain concentration/unbound plasma concentration. Quantifies the net flux of drug across the blood brain barrier, including the quantitative role of transporters, without being confounded by nonspecific binding in plasma and brain tissues. Gupta et al, DMD, 2006; Hammarlund-Udenaes et al, PharmRes, 2008

[7] = molecular target: T2, M1 receptor (Homo sapiens, UniProt P11229); experiment: Predicted target engagement for human efficacious dose (allometric scaling)
T2 sequence (P11229 1-460): T1 sequence (P11229 1-460)
Excerpt: Based on a measured equivalent unbound plasma:brain distribution profile (Kpuu=1) the exposures shown represent those in either the plasma or brain compartment.

[8] = Hepatocyte stability, CLint (in vitro hepatocytes), mouse; assay type: in vitro ADME; settings: pooled cryopreserved hepatocytes, 1.0 million cells/mL, 37° C., read-out: in vitro intrinsic clearance (CLint)
Procedure: as §1

[9] = parameter used in human receptor occupancy prediction

Work on CC(C)(C)NC(=O)C1CCN([C@H]2C[C@H]3CC[C@@H](C2)N3c2nc(C(F)(F)F)no2)CC1 [Example 1, N-tert-butyl-1-{(1R,3r,5S)-8-[3-(trifluoromethyl)-1,2,4-oxadiazol-5-yl]-8-azabicyclo[3.2.1]octan-3-yl}piperidine-4-carboxamide] yielded a Papp A→B at 1 h, 1 μM ([1]; apical to basolateral, 1 μM, pH 7.4, 1 hour, read-out: Apparent permeability (Papp) A−B) of 66 ×10⁻⁶ cm/s, a Papp B→A at 1 h, 1 μM ([1]; basolateral to apical, 1 μM, pH 7.4, 1 hour, read-out: Apparent permeability (Papp) B−A) of 77 ×10⁻⁶ cm/s and an efflux ratio at 1 h, 1 μM ([1]; pH 7.4, read-out: B−A/A−B efflux ratio) of 1.2. For the same molecule, the EC50 ([2]; CHO cells stably expressing human M1, phospho-ERK1/2, read-out: pEC50 M1 (converted)) was 67.6 nM, the EC50 ([2]; as quoted in FIG. 1 legend, 50% target engagement, read-out: recombinant human EC50 (M1) (converted)) was 65.2 nM and the EC50 ([2]; recombinant human EC50 (M1), as quoted in FIG. 1 legend, 50% target engagement) was 86 nM. The hepatocyte CLint at 1 μM [3] was 8 µL/min/1e6 cells, the hepatocyte CLint at 1 μM [4] was 8 µL/min/1e6 cells and the hepatocyte CLint at 1 μM [5] was under 5 µL/min/1e6 cells. For the same molecule, the Kp uu [6] was 1, the “predicted dose to reach the unbound brain exposure required for M1 agonist efficacy” value ([7]; human, oral, 6 hours unbound brain exposure over recombinant M1 EC50) was “approx. 22 mg” and the predicted human half-life ([7]; human, predicted from allometric scaling) was 15 h. The “CI (clearance)” value [7, 9] was 4.4 mL/min/kg, the “F (bioavailability)” value [7, 9] was 0.61 and the Ka [7, 9] was 1. For the same molecule, the V [7, 9] was 5.9 and the hepatocyte CLint at 1 μM [8] was 7 µL/min/1e6 cells.
